Tests used:
[1] = molecular target: T1, N-lysine methyltransferase SMYD2 (Homo sapiens, UniProt Q9NRG4); experiment: Inhibition of FLAG-tagged SMYD2 (unknown origin) expressed in human U2OS cells mediated intracellular p53 methylation incubated for 24 hrs using p53 as substrate by immunofluorescence analysis; type: cell-based
[2] = Antitumor activity against human HCC cells assessed as inhibition of cell proliferation incubated for 3 to 7 days by CellTiter-Glo assay; type: functional, cell-based
KYSE-150 cell line = experiment: Antitumor activity against human KYSE-150 cells assessed as inhibition of cell proliferation incubated for 3 to 7 days by CellTiter-Glo assay; type: functional, cell-based
[3] = Antitumor activity against human BC cells assessed as inhibition of cell proliferation incubated for 3 to 7 days by CellTiter-Glo assay; type: functional, cell-based
KYSE-270 = experiment: Antitumor activity against human KYSE-270 cells assessed as inhibition of cell proliferation incubated for 3 to 7 days by CellTiter-Glo assay; type: functional, cell-based
[4] = molecular target: T1, N-lysine methyltransferase SMYD2; experiment: Inhibition of human SMYD2 overexpressing human KYSE-150 cells assessed as SMYD2 assessed as reduction in BTF3 monomethylation by Western blot analysis; type: cell-based, KYSE-150 cell line

T1 sequence (Q9NRG4 whole entry): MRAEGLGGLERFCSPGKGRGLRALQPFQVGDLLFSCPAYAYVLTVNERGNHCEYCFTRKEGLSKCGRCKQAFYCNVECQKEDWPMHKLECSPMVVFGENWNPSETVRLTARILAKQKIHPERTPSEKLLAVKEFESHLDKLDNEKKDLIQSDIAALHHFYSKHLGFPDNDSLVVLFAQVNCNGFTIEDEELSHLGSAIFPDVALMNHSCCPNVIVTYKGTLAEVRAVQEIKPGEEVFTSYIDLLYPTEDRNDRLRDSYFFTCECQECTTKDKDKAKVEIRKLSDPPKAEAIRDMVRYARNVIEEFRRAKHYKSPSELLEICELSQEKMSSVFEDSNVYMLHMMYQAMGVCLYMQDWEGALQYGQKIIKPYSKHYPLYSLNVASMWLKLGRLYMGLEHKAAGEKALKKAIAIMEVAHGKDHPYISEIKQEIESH

Structure (SMILES): O=C1COc2c(CCNCCN(C(=O)CCNCCc3ccc(Cl)c(Cl)c3)C3CCCCC3)ccc(O)c2N1
- IC50 [1]: < 100 µM

Structure (SMILES): Cc1cn(CCN2CCN(c3ccccc3-c3cc(C#N)cc(C(=O)NCCCN4CCCC4)c3)CC2)c2ccccc12
- IC50 [2]: 1500 nM
- IC50 (KYSE-150 cell line): 1500 nM
- IC50 [3]: 1500 nM
- IC50 (KYSE-270): 1500 nM

Structure (SMILES): O=C(NC1CN(Cc2cnn(Cc3ccc(Cl)cc3)c2)C1)c1cn(C2CC2)nn1
- IC50 [4]: 2.9 nM

From ChEMBL document CHEMBL5113510, “Protein Lysine Methyltransferase SMYD2: A Promising Small Molecule Target for Cancer Therapy” (J Med Chem, 2022)
